# Experimental data published in patent publication US9951028B2, “Agricultural chemicals” (REDAG CROP PROTECTION LTD, priority 2013, dated 2018).
# Legend:
# [1] = tested on: white mustard Sinapsis alba; assay: Herbicidal efficacy screen, potter tower spray, necrosis assessed; format: in vivo
# Protocol: (§1) Compounds 22, 23 and 24 were screened for herbicidal efficacy against target plants: garden cress, Lepidium sativum, common chickweed, Stellaria media, and white mustard […] alba Plants were obtained as seeds and were grown to the 2-4 true leaf stage. Plants were grown under laboratory conditions, individually in seed trays. Each plant (in an approximately 3 cm diameter plug) was then detached from the tray for spraying. The compounds were screened at a range of five concentrations, diluted in acetone and TweenTM. A carrier only control was also conducted. Treatments were applied directly onto the plants, using a potter tower, at a specified application rate. One plant of each species was sprayed using a potter tower. The 3 different types of plants were placed on a 10 cm diameter platform directly beneath the potter sprayer and sprayed simultaneously. The growth of the plants and any Phytotoxicity effects were then assessed at intervals over 21 days, according to EPPO guideline PP1/135. Five replicas were performed for each treatment, for each species. In the tables below C represents a percentage increase in necrosis relative to the control of 0.1-50; B represents a percentage inhibition of 50-80; and A represents a percentage inhibition of 80-100.
# [2] = tested on: common chickweed, Stellaria media; assay: as above; format: in vivo
# Protocol: as §1
# [3] = 12.5 g/ha, day 1 post application
# [4] = 12.5 g/ha, day 2 post application
# [5] = 12.5 g/ha, day 3 post application
# [6] = 12.5 g/ha, day 4 post application
# [7] = 12.5 g/ha, day 5 post application
# [8] = 12.5 g/ha, day 7 post application
# [9] = 12.5 g/ha, day 10 post application
# [10] = 25 g/ha, day 1 post application
# [11] = 25 g/ha, day 2 post application
# [12] = 25 g/ha, day 3 post application
# [13] = 25 g/ha, day 4 post application
# [14] = 25 g/ha, day 5 post application
# [15] = 25 g/ha, day 7 post application
# [16] = 25 g/ha, day 10 post application
# [17] = 50 g/ha, day 1 post application
# [18] = 50 g/ha, day 2 post application
# [19] = 50 g/ha, day 3 post application
smiles,measurement,setting,value
"CC(C)N(C)S(=O)(=O)NCc1cc(-n2c(=O)cc(C(F)(F)F)n(C)c2=O)c(F)cc1Cl [Compound 23, 1-[4-Chloro-2-fluoro-5-[[(isopropyl(methyl)sulfamoyl)amino]methyl]phenyl]-3-methyl-2,6-dioxo-4-(trifluoromethyl)pyrimidine]",Average of necrosis,[1]; [3],C (C represents a percentage increase in necrosis relative to the control of 0.1-50)
same,Average of necrosis,[1]; [4],C (C represents a percentage increase in necrosis relative to the control of 0.1-50)
same,Average of necrosis,[1]; [5],C (C represents a percentage increase in necrosis relative to the control of 0.1-50)
same,Average of necrosis,[1]; [6],C (C represents a percentage increase in necrosis relative to the control of 0.1-50)
same,Average of necrosis,[1]; [7],C (C represents a percentage increase in necrosis relative to the control of 0.1-50)
same,Average of necrosis,[1]; [8],C (C represents a percentage increase in necrosis relative to the control of 0.1-50)
same,Average of necrosis,[1]; [9],C (C represents a percentage increase in necrosis relative to the control of 0.1-50)
same,Average of necrosis,[1]; [10],C (C represents a percentage increase in necrosis relative to the control of 0.1-50)
same,Average of necrosis,[1]; [11],C (C represents a percentage increase in necrosis relative to the control of 0.1-50)
same,Average of necrosis,[1]; [12],C (C represents a percentage increase in necrosis relative to the control of 0.1-50)
same,Average of necrosis,[1]; [13],C (C represents a percentage increase in necrosis relative to the control of 0.1-50)
same,Average of necrosis,[1]; [14],C (C represents a percentage increase in necrosis relative to the control of 0.1-50)
same,Average of necrosis,[1]; [15],C (C represents a percentage increase in necrosis relative to the control of 0.1-50)
same,Average of necrosis,[1]; [16],C (C represents a percentage increase in necrosis relative to the control of 0.1-50)
same,Average of necrosis,[1]; [17],C (C represents a percentage increase in necrosis relative to the control of 0.1-50)
same,Average of necrosis,[1]; [18],C (C represents a percentage increase in necrosis relative to the control of 0.1-50)
same,Average of necrosis,[1]; [19],C (C represents a percentage increase in necrosis relative to the control of 0.1-50)
same,Average of necrosis,"[1]; 50 g/ha, day 4 post application",C (C represents a percentage increase in necrosis relative to the control of 0.1-50)
same,Average of necrosis,"[1]; 50 g/ha, day 5 post application",C (C represents a percentage increase in necrosis relative to the control of 0.1-50)
same,Average of necrosis,"[1]; 50 g/ha, day 7 post application",C (C represents a percentage increase in necrosis relative to the control of 0.1-50)
same,Average of necrosis,"[1]; 50 g/ha, day 10 post application",C (C represents a percentage increase in necrosis relative to the control of 0.1-50)
same,Average of necrosis,"[1]; 100 g/ha, day 1 post application",C (C represents a percentage increase in necrosis relative to the control of 0.1-50)
same,Average of necrosis,"[1]; 100 g/ha, day 2 post application",C (C represents a percentage increase in necrosis relative to the control of 0.1-50)
same,Average of necrosis,"[1]; 100 g/ha, day 3 post application",C (C represents a percentage increase in necrosis relative to the control of 0.1-50)
same,Average of necrosis,"[1]; 100 g/ha, day 4 post application",C (C represents a percentage increase in necrosis relative to the control of 0.1-50)
same,Average of necrosis,"[1]; 100 g/ha, day 5 post application",C (C represents a percentage increase in necrosis relative to the control of 0.1-50)
same,Average of necrosis,"[1]; 100 g/ha, day 7 post application",C (C represents a percentage increase in necrosis relative to the control of 0.1-50)
same,Average of necrosis,"[1]; 100 g/ha, day 10 post application",C (C represents a percentage increase in necrosis relative to the control of 0.1-50)
same,Average of necrosis,"[1]; 200 g/ha, day 1 post application",C (C represents a percentage increase in necrosis relative to the control of 0.1-50)
same,Average of necrosis,"[1]; 200 g/ha, day 2 post application",C (C represents a percentage increase in necrosis relative to the control of 0.1-50)
same,Average of necrosis,"[1]; 200 g/ha, day 3 post application",C (C represents a percentage increase in necrosis relative to the control of 0.1-50)
same,Average of necrosis,"[1]; 200 g/ha, day 4 post application",C (C represents a percentage increase in necrosis relative to the control of 0.1-50)
same,Average of necrosis,"[1]; 200 g/ha, day 5 post application",C (C represents a percentage increase in necrosis relative to the control of 0.1-50)
same,Average of necrosis,"[1]; 200 g/ha, day 7 post application",C (C represents a percentage increase in necrosis relative to the control of 0.1-50)
same,Average of necrosis,"[1]; 200 g/ha, day 10 post application",C (C represents a percentage increase in necrosis relative to the control of 0.1-50)
same,Average of necrosis,[2]; [3],C (C represents a percentage increase in necrosis relative to the control of 0.1-50)
same,Average of necrosis,[2]; [4],C (C represents a percentage increase in necrosis relative to the control of 0.1-50)
same,Average of necrosis,[2]; [5],C (C represents a percentage increase in necrosis relative to the control of 0.1-50)
same,Average of necrosis,[2]; [6],C (C represents a percentage increase in necrosis relative to the control of 0.1-50)
same,Average of necrosis,[2]; [7],B (B represents a percentage inhibition of 50-80)
same,Average of necrosis,[2]; [8],B (B represents a percentage inhibition of 50-80)
same,Average of necrosis,[2]; [9],A (A represents a percentage inhibition of 80-100)
same,Average of necrosis,[2]; [10],C (C represents a percentage increase in necrosis relative to the control of 0.1-50)
same,Average of necrosis,[2]; [11],C (C represents a percentage increase in necrosis relative to the control of 0.1-50)
same,Average of necrosis,[2]; [12],C (C represents a percentage increase in necrosis relative to the control of 0.1-50)
same,Average of necrosis,[2]; [13],C (C represents a percentage increase in necrosis relative to the control of 0.1-50)
same,Average of necrosis,[2]; [14],B (B represents a percentage inhibition of 50-80)
same,Average of necrosis,[2]; [15],B (B represents a percentage inhibition of 50-80)
same,Average of necrosis,[2]; [16],B (B represents a percentage inhibition of 50-80)
same,Average of necrosis,[2]; [17],C (C represents a percentage increase in necrosis relative to the control of 0.1-50)
same,Average of necrosis,[2]; [18],C (C represents a percentage increase in necrosis relative to the control of 0.1-50)
same,Average of necrosis,[2]; [19],C (C represents a percentage increase in necrosis relative to the control of 0.1-50)
